We go through one compound from patent publication US20240294545A1 (CSPC Zhongqi Pharmaceutical Technology (Shijiazhuang) Co., …, priority 2020, published 2024).

A word on the IC50: it is the concentration that inhibits the measured activity by half.

Common to all, as to format: biochemical
For one experiment, the target named is ATM (Homo sapiens (Human), UniProt Q13315). Briefly: Caliper mobility shift assay for ATM. To be noted: read-out: IC50 of inhibitory activity on ATM kinase. Here is the method: 1.2 Determination of the Inhibitory Activities of Compounds on ATM: Caliper Mobility Shift Assay for ATM
To a 96-well plate, 98 μL of DMSO and 2 μL of the 10 mM stock solution were added and mixed evenly so that the concentration of the solution was 200 μM.
Based on the inhibitory rates of the compound at different concentrations, IC50 was calculated according to the formula: Y=Bottom+(Top−Bottom)/(1+(IC50/X)^HillSlope).

The target in the next experiment is ATR (Homo sapiens (Human), UniProt Q13535). Nature of the experiment: Caliper mobility shift assay for ATR. To be noted: read-out: IC50 of kinase inhibitory activity, ATR. Here is the method: 1.6 Determination of the Inhibitory Activity of Compounds on ATR: Caliper Mobility Shift Assay for ATR
• (1) Preparation of 1× kinase buffer and reaction termination solution • 1) 1× kinase buffer • 50 mM HEPES, pH 7.5 • 0.0015% Brij-35 • […] • 2) Reaction termination solution • 100 mM HEPES, pH 7.5 • 0.015% Brij-35 • 0.2% Coating Reagent #3 • 50 mM EDTA • (2) Preparation of test compound • 1) The compound was dissolved in DMSO to yield a stock solution. Before the assay, to a 96-well plate, 30 μL of a 10 mM stock solution was taken and added with 60 μL of DMSO. […]

A further experiment has as its target mTOR (Homo sapiens (Human), UniProt P42345). Briefly: LanceUltra kinase assay for mTOR. To be noted: read-out: IC50 of kinase inhibitory activity, mTOR.
The target in the next experiment is DNA-PK (Homo sapiens (Human), UniProt P78527). Nature of the experiment: ADP-Glo kinase assay for DNA-PK. To be noted: read-out: IC50 of kinase inhibitory activity, DNA-PK. The protocol:
1.4 Determination of the Inhibitory Activities of Compounds on DNA-PK Kinase: ADP-Glo Kinase Assay
• (1) Preparation of 1× kinase buffer • 40 mM Tris, pH 7.5 • 0.0055% Brij-35 • 20 mM MgCl2 • 0.05 mM DTT • (2) Preparation of test compound • 1) The compound was dissolved in DMSO to yield a stock solution. Before the assay, the stock solution of the compound was diluted with DMSO to yield a 100× solution at a concentration that is 100 times a target concentration for assay. If the target concentration was […], the stock solution should be diluted to yield a 1 mM solution at this step. • 2) 100 μL of DMSO was added, respectively, into two blank wells in the same 96 well plate, corresponding to the total reaction control without compound and the blank control without enzyme. • 3) Preparation of test plate: 50 nL of the compound solution in each of the above wells was taken to a 384-well plate as a test plate. • (3) Kinase reaction • 1) DNA-PK kinase was dissolved in 1× kinase buffer to yield a 2× enzyme solution that is twice the final concentration. 2.5 μL of the 2× enzyme solution was taken to each well of the test plate. The blank control without enzyme was added with 2.5 μL of the 1× kinase buffer instead of the enzyme solution. […]
Background: ADP-Glo first removes unused ATP, then detects ADP through luciferase.

The target in the next experiment is PI3Kα (p110α/p85α) (Homo sapiens (Human), UniProt P42336). Briefly: ADP-Glo kinase assay for PI3Kα. To be noted: read-out: IC50 of kinase inhibitory activity, PI3K α. Here is the method: (§1) 1.3 Determination of the Inhibitory Activities of Compounds on PI3Kα, PI3Kβ, PI3Kγ, and PI3Kδ Kinase: ADP-Glo Kinase Assay
(§2) Experimental procedures • (1) Preparation of 1× kinase buffer • 50 mM HEPES, pH 7.5 • 3 mM MgCl2 • 1 mM EGTA • 100 mM NaCl • 0.03% CHAPS • 2 mM DTT • (2) Preparation of test compound • 1) Dissolution and dilution of compound: • The compound was dissolved in DMSO to yield a stock solution. Before the assay, the stock solution of the compound was diluted with DMSO in a 384-well plate to yield a 100× solution at a concentration that is 100 times a target concentration for assay. • 50 μL of DMSO was added, respectively, into two blank wells in the same 384 well plate, corresponding to the total reaction control without compound and the blank control without enzyme. • 2) Preparation of test plate: 50 nL of the compound solution in each of the above wells was taken to a test plate. • (3) Kinase reaction • 1) PI3Kα, PI3Kβ, PI3Kγ, and PI3Kδ kinases were dissolved, respectively, in 1× kinase buffer to yield a 2× enzyme solution at a concentration that is twice the final concentration. 2.5 µL of the 2× enzyme solution was taken to each well of the test plate. The blank control without enzyme was added with 2.5 μL of the 1× kinase buffer instead of the enzyme solution. […]

The target of another experiment is PI3Kβ (p110β). Nature of the experiment: ADP-Glo kinase assay for PI3Kβ. Conditions: read-out: IC50 of kinase inhibitory activity, PI3K β. The protocol:
as §1, §2

A further experiment deals with PI3Kγ (pp110gamma) (Homo sapiens (Human), UniProt P48736). Nature of the experiment: ADP-Glo kinase assay for PI3Kγ. To be noted: read-out: IC50 of kinase inhibitory activity, PI3K γ. The protocol: as §1, §2
Another experiment has as its target PI3Kδ (p110δ/p85δ) (Homo sapiens (Human), UniProt O00329). Briefly: ADP-Glo kinase assay for PI3Kδ. Conditions: read-out: IC50 of kinase inhibitory activity, PI3K δ. Here is the method: as §1, §2

Sequence of ATR (Q13535 whole entry): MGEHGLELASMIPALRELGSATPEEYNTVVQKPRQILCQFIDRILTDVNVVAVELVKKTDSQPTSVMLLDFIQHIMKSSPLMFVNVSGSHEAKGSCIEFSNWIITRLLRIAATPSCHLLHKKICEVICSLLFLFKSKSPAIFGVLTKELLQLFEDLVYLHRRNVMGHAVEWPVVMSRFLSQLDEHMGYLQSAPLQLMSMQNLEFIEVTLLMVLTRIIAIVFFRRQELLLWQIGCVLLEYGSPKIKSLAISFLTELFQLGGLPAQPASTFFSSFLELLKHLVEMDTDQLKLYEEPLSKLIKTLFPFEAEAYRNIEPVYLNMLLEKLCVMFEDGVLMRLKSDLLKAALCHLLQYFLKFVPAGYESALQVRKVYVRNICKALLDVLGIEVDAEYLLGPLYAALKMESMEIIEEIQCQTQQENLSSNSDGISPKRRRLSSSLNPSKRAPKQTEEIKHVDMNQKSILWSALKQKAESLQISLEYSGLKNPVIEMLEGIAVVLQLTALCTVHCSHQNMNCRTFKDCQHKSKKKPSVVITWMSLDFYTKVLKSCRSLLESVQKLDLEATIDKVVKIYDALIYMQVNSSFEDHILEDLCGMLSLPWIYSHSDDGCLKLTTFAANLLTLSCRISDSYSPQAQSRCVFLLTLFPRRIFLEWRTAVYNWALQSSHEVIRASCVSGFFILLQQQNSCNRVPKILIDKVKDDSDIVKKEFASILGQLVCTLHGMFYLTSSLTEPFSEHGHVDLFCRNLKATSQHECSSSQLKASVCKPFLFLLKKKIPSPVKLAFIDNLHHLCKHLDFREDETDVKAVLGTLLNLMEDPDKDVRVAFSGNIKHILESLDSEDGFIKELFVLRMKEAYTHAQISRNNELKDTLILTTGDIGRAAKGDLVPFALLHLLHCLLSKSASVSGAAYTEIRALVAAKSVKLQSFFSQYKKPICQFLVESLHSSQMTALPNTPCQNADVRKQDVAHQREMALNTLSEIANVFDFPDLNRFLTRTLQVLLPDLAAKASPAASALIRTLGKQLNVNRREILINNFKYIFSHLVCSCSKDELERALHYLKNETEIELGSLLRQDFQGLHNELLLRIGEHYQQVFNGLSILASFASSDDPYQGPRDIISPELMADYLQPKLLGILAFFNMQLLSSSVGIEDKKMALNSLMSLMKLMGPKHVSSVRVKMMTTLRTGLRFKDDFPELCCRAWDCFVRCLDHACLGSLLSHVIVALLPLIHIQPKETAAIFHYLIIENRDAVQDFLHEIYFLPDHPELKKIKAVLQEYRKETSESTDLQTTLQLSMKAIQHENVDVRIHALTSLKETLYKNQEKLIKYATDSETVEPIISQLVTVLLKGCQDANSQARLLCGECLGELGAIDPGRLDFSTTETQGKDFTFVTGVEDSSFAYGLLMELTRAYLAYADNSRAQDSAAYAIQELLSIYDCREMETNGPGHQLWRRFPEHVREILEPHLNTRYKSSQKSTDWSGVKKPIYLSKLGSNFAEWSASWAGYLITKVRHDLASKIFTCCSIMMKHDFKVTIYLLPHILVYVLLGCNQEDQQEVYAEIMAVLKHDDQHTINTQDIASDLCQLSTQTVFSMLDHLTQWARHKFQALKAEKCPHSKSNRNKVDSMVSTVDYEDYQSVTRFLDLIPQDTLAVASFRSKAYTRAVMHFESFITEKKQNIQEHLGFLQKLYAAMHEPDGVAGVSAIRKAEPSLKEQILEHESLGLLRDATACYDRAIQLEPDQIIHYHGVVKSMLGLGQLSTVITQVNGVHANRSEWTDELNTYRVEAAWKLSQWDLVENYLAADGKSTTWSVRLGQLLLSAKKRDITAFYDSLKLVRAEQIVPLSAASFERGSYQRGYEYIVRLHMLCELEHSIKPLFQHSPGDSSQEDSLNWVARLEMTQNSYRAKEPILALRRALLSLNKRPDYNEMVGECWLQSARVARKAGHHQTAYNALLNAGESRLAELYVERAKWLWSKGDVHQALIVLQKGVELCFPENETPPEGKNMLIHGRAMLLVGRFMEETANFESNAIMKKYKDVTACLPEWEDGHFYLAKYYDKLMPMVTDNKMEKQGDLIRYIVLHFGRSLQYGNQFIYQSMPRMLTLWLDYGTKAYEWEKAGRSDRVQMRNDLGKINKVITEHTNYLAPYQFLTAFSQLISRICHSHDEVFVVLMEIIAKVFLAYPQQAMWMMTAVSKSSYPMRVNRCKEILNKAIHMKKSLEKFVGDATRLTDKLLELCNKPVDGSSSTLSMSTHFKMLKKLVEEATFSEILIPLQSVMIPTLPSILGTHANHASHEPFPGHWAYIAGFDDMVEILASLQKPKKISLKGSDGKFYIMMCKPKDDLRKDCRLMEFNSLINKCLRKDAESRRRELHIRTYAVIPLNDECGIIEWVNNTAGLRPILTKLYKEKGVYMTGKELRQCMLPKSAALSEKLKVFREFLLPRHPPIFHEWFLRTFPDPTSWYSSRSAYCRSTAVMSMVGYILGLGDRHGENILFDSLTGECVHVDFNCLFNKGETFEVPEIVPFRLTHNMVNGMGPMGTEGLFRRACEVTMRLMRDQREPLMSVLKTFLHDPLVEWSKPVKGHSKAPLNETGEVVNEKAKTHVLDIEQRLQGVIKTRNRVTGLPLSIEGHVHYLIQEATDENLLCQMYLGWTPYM
Sequence of ATR (Q8WXE1 whole entry partner): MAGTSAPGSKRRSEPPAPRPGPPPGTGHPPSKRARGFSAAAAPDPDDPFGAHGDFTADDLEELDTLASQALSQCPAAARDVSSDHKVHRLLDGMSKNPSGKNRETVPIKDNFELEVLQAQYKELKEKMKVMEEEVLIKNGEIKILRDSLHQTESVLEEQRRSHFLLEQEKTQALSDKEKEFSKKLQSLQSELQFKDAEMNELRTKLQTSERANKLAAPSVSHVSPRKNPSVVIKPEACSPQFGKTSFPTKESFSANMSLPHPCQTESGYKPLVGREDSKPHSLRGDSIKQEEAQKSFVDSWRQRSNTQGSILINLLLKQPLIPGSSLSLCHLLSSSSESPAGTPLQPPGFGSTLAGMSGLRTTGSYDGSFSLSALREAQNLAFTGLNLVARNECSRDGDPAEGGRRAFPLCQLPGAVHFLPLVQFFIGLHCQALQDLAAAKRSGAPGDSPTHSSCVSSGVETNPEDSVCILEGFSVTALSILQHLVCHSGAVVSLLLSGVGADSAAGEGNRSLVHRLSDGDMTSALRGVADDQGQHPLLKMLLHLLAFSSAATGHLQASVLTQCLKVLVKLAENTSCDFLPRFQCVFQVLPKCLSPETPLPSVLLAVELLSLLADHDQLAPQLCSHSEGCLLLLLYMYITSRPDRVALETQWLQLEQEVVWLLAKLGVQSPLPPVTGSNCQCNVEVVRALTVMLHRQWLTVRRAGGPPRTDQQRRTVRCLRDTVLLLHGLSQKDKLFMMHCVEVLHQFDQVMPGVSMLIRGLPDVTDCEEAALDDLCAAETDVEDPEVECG
Sequence of PI3Kγ (pp110gamma) (P48736 whole entry): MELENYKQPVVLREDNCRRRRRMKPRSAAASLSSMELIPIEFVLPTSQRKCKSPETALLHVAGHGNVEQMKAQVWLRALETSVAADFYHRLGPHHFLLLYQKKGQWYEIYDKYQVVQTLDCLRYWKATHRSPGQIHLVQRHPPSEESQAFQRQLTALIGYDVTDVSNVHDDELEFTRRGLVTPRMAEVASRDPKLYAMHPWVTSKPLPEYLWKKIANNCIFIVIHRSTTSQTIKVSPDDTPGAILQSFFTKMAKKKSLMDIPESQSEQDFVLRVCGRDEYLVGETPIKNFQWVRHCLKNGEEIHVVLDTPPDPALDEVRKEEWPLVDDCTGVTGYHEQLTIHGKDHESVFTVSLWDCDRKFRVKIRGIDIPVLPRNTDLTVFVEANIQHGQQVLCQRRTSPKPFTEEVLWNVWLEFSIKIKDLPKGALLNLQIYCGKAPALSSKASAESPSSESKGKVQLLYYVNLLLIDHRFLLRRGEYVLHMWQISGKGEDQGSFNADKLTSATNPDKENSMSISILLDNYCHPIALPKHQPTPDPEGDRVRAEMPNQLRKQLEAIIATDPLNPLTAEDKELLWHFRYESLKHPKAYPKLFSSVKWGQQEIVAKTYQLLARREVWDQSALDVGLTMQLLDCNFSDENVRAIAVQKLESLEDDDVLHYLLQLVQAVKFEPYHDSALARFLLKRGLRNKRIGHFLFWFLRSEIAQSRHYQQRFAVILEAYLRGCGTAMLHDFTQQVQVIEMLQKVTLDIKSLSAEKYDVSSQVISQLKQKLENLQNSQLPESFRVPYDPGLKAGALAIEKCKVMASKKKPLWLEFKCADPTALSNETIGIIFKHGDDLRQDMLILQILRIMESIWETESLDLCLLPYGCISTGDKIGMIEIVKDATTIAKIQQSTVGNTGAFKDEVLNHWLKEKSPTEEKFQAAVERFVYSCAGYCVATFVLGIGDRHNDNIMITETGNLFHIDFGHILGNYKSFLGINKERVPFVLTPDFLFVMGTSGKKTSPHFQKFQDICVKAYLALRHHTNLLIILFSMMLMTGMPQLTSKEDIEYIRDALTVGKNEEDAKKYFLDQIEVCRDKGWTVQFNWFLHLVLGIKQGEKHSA

Regarding `CC[C@@H]1COc2c(-c3ccc(OCCCN4CCCCC4)nc3)c(F)cc3ncc4c(c23)n1c(=O)n4C` [Example A-22, (R)-10-ethyl-6-fluoro-2-methyl-7-(6-(3-(piperidin-1-yl)propoxy)pyridin-3-yl)-9,10-dihydro-8-oxa-2,4,10a-triazanaphtho[2,1,8-cde]azulen-1(2H)-one], the IC50 at ATM was 0.00052 µM; on ATR, more than 10 µM; on mTOR it was 1.28 µM; on DNA-PK, 0.852 µM; at PI3Kα (p110α/p85α), 6.28 µM; on PI3Kβ (p110β), more than 10 µM. Also, the IC50 on PI3Kγ (pp110gamma) and on PI3Kδ (p110δ/p85δ) was more than 10 µM each time.
